The source of these data is patent US11345681B1, “Inhibitors of fibroblast growth factor receptor kinases” (Kinnate Biopharma Inc., priority 2020, dated 2022).

Each structure is given as a SMILES string. pIC50: −log10 of the molar value.

This assay deals with Wild type FGFR2 (Homo sapiens (Human), UniProt P21802). Nature of the assay: FGFR2 kinase assay (fluorescence-based microfluidic mobility shift assay). The following applies: wild type FGFR2 0.06 nM, 100 μM ATP, 80 minutes at room temperature; class symbols. Format: biochemical.
Wild type FGFR2, sequence (P21802 22-821): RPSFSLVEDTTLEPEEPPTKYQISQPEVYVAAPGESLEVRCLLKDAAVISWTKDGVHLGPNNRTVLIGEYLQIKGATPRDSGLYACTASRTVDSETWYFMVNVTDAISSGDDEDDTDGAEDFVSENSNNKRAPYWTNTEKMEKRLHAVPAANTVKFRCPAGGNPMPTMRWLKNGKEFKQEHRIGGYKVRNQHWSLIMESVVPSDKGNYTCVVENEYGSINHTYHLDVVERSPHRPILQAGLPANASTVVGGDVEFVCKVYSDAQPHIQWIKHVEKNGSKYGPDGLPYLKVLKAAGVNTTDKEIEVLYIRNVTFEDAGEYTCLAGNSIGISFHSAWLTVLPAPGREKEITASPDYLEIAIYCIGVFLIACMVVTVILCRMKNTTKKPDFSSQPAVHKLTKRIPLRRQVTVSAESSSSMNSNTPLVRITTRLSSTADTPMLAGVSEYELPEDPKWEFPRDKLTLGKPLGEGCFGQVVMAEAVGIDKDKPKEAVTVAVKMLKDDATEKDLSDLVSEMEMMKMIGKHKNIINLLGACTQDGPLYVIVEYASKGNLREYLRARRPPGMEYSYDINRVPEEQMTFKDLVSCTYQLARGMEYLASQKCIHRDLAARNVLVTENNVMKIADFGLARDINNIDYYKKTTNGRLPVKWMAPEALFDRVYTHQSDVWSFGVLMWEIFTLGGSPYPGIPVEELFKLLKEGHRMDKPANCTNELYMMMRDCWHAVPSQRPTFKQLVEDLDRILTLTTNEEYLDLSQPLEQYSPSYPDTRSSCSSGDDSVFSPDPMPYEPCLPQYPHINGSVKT

With `C=CC(=O)N1C[C@@H](n2nc(C#Cc3cc4ncn(CC)c4cc3F)c(C(N)=O)c2NC)C[C@@H]1COC` [Example 32, 1-((3S,5R)-1-acryloyl-5-(methoxymethyl)pyrrolidin-3-yl)-3-((1-ethyl-6-fluoro-1H-benzo[d]imidazol-5-yl)ethynyl)-5-(methylamino)-1H-pyrazole-4-carboxamide], the pIC50 (as a rule, the IC50 on a negative log10 scale, so that one unit is a factor of ten) was not below 7.00.
On to `C=CC(=O)N1C[C@@H](n2nc(C#Cc3cc4nc(C)n(CC)c4cc3Cl)c(C(N)=O)c2NC)C[C@@H]1COC` [Example 33, 1-((3S,5R)-1-acryloyl-5-(methoxymethyl)pyrrolidin-3-yl)-3-((6-chloro-1-ethyl-2-methyl-1H-benzo[d]imidazol-5-yl)ethynyl)-5-(methylamino)-1H-pyrazole-4-carboxamide], for which the pIC50 is not below 7.00.
With `C=CC(=O)N1C[C@@H](n2nc(C#Cc3c(F)cc4c(nc(C)n4CC(F)(F)F)c3F)c(C(N)=O)c2NC)C[C@@H]1COC` [Example 35, 1-((3S,5R)-1-acryloyl-5-(methoxymethyl)pyrrolidin-3-yl)-3-((4,6-difluoro-2-methyl-1-(2,2,2-trifluoroethyl)-1H-benzo[d]imidazol-5-yl)ethynyl)-5-(methylamino)-1H-pyrazole-4-carboxamide] the figure was not below 7.00; with `C=CC(=O)N1C[C@@H](n2nc(C#Cc3ccc4ncn(CC)c4c3F)c(C(N)=O)c2NC)C[C@@H]1COC` [Example 36, 3-[2-(3-ethyl-4-fluoro-1,3-benzodiazol-5-yl)ethynyl]-1-[(3S,5R)-5-(methoxymethyl)-1-(prop-2-enoyl)pyrrolidin-3-yl]-5-(methylamino)pyrazole-4-carboxamide], 6.00 to 7.00; with `C=CC(=O)N1C[C@@H](n2nc(C#Cc3cc4nc(C)n(CC)c4cc3F)c(C(N)=O)c2NC)C[C@@H]1COC` [Example 37, 3-[2-(1-ethyl-6-fluoro-2-methyl-1,3-benzodiazol-5-yl)ethynyl]-1-[(3S,5R)-5-(methoxymethyl)-1-(Prop-2-enoyl)pyrrolidin-3-yl]-5-(methylamino)pyrazole-4-carboxamide], not below 7.00.
For `C=CC(=O)N1C[C@@H](n2nc(C#Cc3ccc4c(nc(C)n4CC)c3Cl)c(C(N)=O)c2NC)C[C@@H]1COC` [Example 38, 3-[2-(4-chloro-1-ethyl-2-methyl-1,3-benzodiazol-5-yl)ethynyl]-1-[(3S,5R)-5-(methoxymethyl)-1-(prop-2-enoyl)pyrrolidin-3-yl]-5-(methylamino)pyrazole-4-carboxamide], the pIC50 is not below 7.00.
With `C=CC(=O)N1C[C@@H](n2nc(C#Cc3ccc4c(n3)nc(C)n4CC)c(C(N)=O)c2NC)C[C@@H]1COC` [Example 39, 3-(2-[1-ethyl-2-methylimidazo[4,5-b]pyridin-5-yl]ethynyl)-1-[(3S,5R)-5-(methoxymethyl)-1-(prop-2-enoyl)pyrrolidin-3-yl]-5-(methylamino)pyrazole-4-carboxamide] the figure was 6.00 to 7.00; with `C=CC(=O)N1C[C@@H](n2nc(C#Cc3cc4ncn(C)c4cc3F)c(C(N)=O)c2NC)C[C@@H]1COC` [Example 40, 3-[2-(6-fluoro-1-methyl-1,3-benzodiazol-5-yl)ethynyl]-1-[(3S,5)-5-(methoxymethyl)-1-(prop-2-enoyl)pyrrolidin-3-yl]-5-(methylamino)pyrazole-4-carboxamide], not below 7.00; with `C=CC(=O)N1C[C@@H](n2nc(C#Cc3ccc4ncn(C)c4c3F)c(C(N)=O)c2NC)C[C@@H]1COC` [Example 41, 3-[2-(4-fluoro-^-1-methyl-1,3-benzodiazol-5-yl)ethynyl]-1-[(3S,5R)-5-(methoxymethyl)-1-(prop-2-enoyl)pyrrolidin-3-yl]-(methylamino)pyrazole-4-carboxamide], 6.00 to 7.00.
With `C=CC(=O)N1C[C@@H](n2nc(C#Cc3ccc4[nH]c(C5CC5)nc4c3)c(C(N)=O)c2NC)C[C@@H]1COC` [Example 42, 3-[2-(2-cyclopropyl-1H-1,3-benzodiazol-5-yl)ethynyl]-1-[(3S,5R)-5-(methoxymethyl)-1-(prop-2-enoyl)pyrrolidin-3-yl]-5-(methylamino)pyrazole-4-carboxamide] the figure was not below 7.00.
Regarding `C=CC(=O)N1C[C@@H](n2nc(C#Cc3ccc4c(c3)nc(C3CC3)n4C)c(C(N)=O)c2NC)C[C@@H]1COC` [Example 43, 3-[2-(2-cyclopropyl-1-methyl-1,3-benzodiazol-5-yl)ethynyl]-1-[(3S,5R)-5-(methoxymethyl)-1-(prop-2-enoyl)pyrrolidin-3-yl]-5-(methylamino)pyrazole-4-carboxamide], the pIC50 is not below 7.00.
With `C=CC(=O)N1C[C@@H](n2nc(C#Cc3ccc4c(C)noc4c3)c(C(N)=O)c2NC)C[C@@H]1COC` [Example 44, 1-[(3S,5R)-5-(methoxymethyl)-1-(prop-2-enoyl)pyrrolidin-3-yl]-3-[2-(3-methyl-1,2-benzoxazol-6-yl)ethynyl]-5-(methylamino)pyrazole-4-carboxamide], the negative logarithm of the IC50 (pIC50) was not below 7.00.
The same measure for `C=CC(=O)N1C[C@@H](n2nc(C#Cc3c(F)cc4c(nc(C5CC5)n4CC)c3F)c(C(N)=O)c2NC)C[C@@H]1COC` [Example 45, 3-[2-(2-cyclopropyl-1-ethyl-4,6-difluoro-1,3-benzodiazol-5-yl)ethynyl]-1-[(3S,5R)-5-(methoxymethyl)-1-(prop-2-enoyl)pyrrolidin-3-yl]-5-(methylamino) pyrazole-4-carboxamide]: not below 7.00; for `C=CC(=O)N1C[C@@H](n2nc(C#Cc3c(F)cc4[nH]c(C(F)(F)F)nc4c3F)c(C(N)=O)c2NC)C[C@@H]1COC` [Example 46]: not below 7.00; for `C=CC(=O)N1C[C@@H](n2nc(C#Cc3cc4nc(C)n(CC)c4cn3)c(C(N)=O)c2NC)C[C@@H]1COC` [Example 48, 3-(2-[3-Ethyl-2-methylimidazo[4,5-c]pyridin-6-yl]ethynyl)-1-[(3S,5R)-5-(methoxymethyl)-1-(prop-2-enoyl)pyrrolidin-3-yl]-5-(methylamino)pyrazole-4-carboxamide]: 6.00 to 7.00.
With `C=CC(=O)N1C[C@@H](n2nc(C#Cc3c(F)cc4c(nc(C5CC5)n4C)c3F)c(C(N)=O)c2NC)C[C@@H]1COC` [Example 50, 3-[2-(2-Cyclopropyl-4,6-difluoro-1-methyl-1,3-benzodiazol-5-yl)ethynyl]-1-[(3S,5R)-5-(methoxymethyl)-1-(prop-2-enoyl)pyrrolidin-3-yl]-5-(methylamino)pyrazole-4-carboxamide] the figure was not below 7.00.
For `C=CC(=O)N1C[C@@H](n2nc(C#Cc3ccc4c(nc(C5CC5)n4C)c3F)c(C(N)=O)c2NC)C[C@@H]1COC` [Example 51, 1-((3S,5R)-1-Acryloyl-5-(methoxymethyl)pyrrolidin-3-yl)-3-((2-cyclopropyl-4-fluoro-1-methyl-1H-benzo[d]imidazol-5-yl)ethynyl)-5-(methylamino)-1H-pyrazole-4-carboxamide], the pIC50 was not below 7.00.
With `C=CC(=O)N1C[C@@H](n2nc(C#Cc3ccc4cccnc4c3)c(C(N)=O)c2NC)C[C@@H]1COC` [Example 52, 1-[(3S,5R)-5-(Methoxymethyl)-1-(prop-2-enoyl)pyrrolidin-3-yl]-5-(methylamino)-3-[2-(quinolin-7-yl)ethynyl]pyrazole-4-carboxamide] the figure was not below 7.00.
